Paper PMC5667636 (Antiviral Research, 2017)

Assays:
[1] = test system: neuraminidase (NA) of A(H3N2) viruses; assay type: biochemical, influenza A(H3N2) virus
[2] = test system: neuraminidase (NA) of B/Yamagata-lineage viruses; assay type: biochemical, influenza B/Yamagata-lineage virus
[3] = test system: neuraminidase (NA) of B/Victoria-lineage viruses; assay type: biochemical, influenza B/Victoria-lineage virus
[4] = test system: neuraminidase (NA) of A(H1N1)pdm09 viruses; assay type: biochemical, influenza A(H1N1)pdm09 virus

Compound	inhibition phenotype in NAI assay (NI/RI/HRI) [1]	IC50 fold-change [1]	IC50 fold-change compared to reference median IC50 values [1]	inhibition phenotype in NAI assay (NI/RI/HRI) [2]	IC50 fold-change [3]	inhibition phenotype in NAI assay (NI/RI/HRI) [4]
[H]/N=C(\N)N[C@H]1C=C(C(=O)O)O[C@@H]([C@H](OC)[C@H](O)CO)[C@@H]1NC(C)=O [Laninamivir, laninamivir]	borderline NI					
CCOC(=O)C1=C[C@@H](OC(CC)CC)[C@H](NC(C)=O)[C@@H](N)C1 [Oseltamivir, oseltamivir]		87 fold	87 fold	borderline RI		
CC(=O)N[C@H]1[C@H]([C@H](O)[C@H](O)CO)OC(C(=O)O)=C[C@@H]1N=C(N)N [Zanamivir, zanamivir]		32 fold	32 fold		14–17 fold	borderline RI
